{
  "source": "paper PMC2948132",
  "about": "(The Open Cardiovascular Medicine Journal, 2010)",
  "origin": "cited, not measured here",
  "key": {"[1]": {"tested_on": "complement-mediated ischemia/reperfusion injury"}, "[2]": {"tested_on": "classical or alternative C3 convertase", "conditions": "ref [19]-[22]"}, "[3]": {"tested_on": "primate-derived complement", "conditions": "reference not given"}},
  "data": [
    {"substance": "sCR1: Soluble complement receptor1", "values": [
      {"measurement": "protection against IRI, in words", "setting": "[1]; ref [45],[46]", "result": "successful in offering protection against IRI"}
    ]},
    {"substance": "Compstatin", "values": [
      {"measurement": "C3 convertase inhibition, in words", "setting": "[2]", "result": "known to inhibit classical or alternative C3 convertase by preventing C3 cleavage"},
      {"measurement": "species specificity of complement inhibition, in words", "setting": "[3]", "result": "only inhibits primate-derived complement"}
    ]},
    {"substance": "TP20: soluble CR1 decorated with fucosylated tetrasaccharide sialyl Lewisx", "values": [
      {"measurement": "efficacy in animal models of transplantation and IR injury, in words", "setting": "[1]; ref [11],[14],[49],[50]", "result": "effective"}
    ]}
  ]
}
